Laboratory results as given in ChEMBL document CHEMBL5465560, “Selectivity Literature for EUbOPEN Chemogenomic Library” (2024).

How the values were obtained:
[1] = target: Eukaryotic translation initiation factor 2-alpha kinase 1 (Homo sapiens) (UniProt Q9BQI3); assay: Selectivity interaction (KinomeScan (DiscoverX)) EUB0000092b EIF2AK1; conditions: at 10 µM
[2] = target: Cyclin-dependent kinase 11B (Homo sapiens) (UniProt P21127); assay: Selectivity interaction (KinomeScan (DiscoverX)) EUB0000655a CDK11B; conditions: at 10 µM
[3] = target: Tyrosine-protein kinase ABL1 (Homo sapiens, UniProt P00519); assay: Selectivity interaction (Kinase panel (KiNativ target engagement assay in Jurkat cells)) EUB0001635a ABL1; format: cell-based; conditions: Selectivity number of off-targets 0.0, Selectivity number of targets 233.0, Source Knowledge https://www.sciencedirect.com/science/article/pii/S2451945619300674?via%3Dihub, at 1 µM
[4] = target: Mitogen-activated protein kinase kinase kinase 9 (Homo sapiens) (UniProt P80192); assay: Selectivity interaction (KinomeScan (DiscoverX)) EUB0000666a MAP3K9; conditions: at 10 µM
[5] = target: Protein-tyrosine kinase 2-beta (Homo sapiens) (UniProt Q14289); assay: Selectivity interaction (KinomeScan (DiscoverX)) EUB0000666a PTK2B; conditions: at 10 µM
[6] = target: T1, Rhodopsin kinase GRK1 (Homo sapiens) (UniProt Q15835); assay: Selectivity interaction (LanthaScreen Eu Kinase Binding Assay) EUB0001632a GRK1; conditions: at 10 µM
T1 sequence (whole entry): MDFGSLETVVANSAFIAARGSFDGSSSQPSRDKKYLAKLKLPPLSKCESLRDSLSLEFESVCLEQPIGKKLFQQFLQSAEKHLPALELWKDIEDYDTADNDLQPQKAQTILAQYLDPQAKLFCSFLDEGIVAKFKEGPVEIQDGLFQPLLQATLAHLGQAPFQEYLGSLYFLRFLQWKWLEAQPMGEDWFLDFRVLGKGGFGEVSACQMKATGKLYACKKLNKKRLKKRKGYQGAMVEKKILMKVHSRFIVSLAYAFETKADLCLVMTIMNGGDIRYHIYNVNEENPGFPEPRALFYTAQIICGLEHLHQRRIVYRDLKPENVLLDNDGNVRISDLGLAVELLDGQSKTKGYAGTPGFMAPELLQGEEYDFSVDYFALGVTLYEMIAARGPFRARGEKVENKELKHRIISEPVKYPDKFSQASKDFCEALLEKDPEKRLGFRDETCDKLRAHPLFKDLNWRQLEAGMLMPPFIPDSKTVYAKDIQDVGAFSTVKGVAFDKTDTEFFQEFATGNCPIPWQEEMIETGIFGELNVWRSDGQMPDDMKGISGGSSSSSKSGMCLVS

[7] = target: Cyclin-dependent kinase 18 (Homo sapiens) (UniProt Q07002); assay: Selectivity interaction (ActivX KiNativ screen (kinase selectivity in THP-1 cell lysates)) EUB0000639a CDK18; format: subcellular; conditions: lysate
[8] = target: Ribosomal protein S6 kinase alpha-1 (Homo sapiens, UniProt Q15418); assay: Selectivity interaction (ActivX KiNativ screen (kinase selectivity in THP-1 cell lysates)) EUB0000639a RPS6KA1; format: subcellular; conditions: lysate, at 0.01 µM
[9] = target: T2, Serine/threonine-protein kinase BRSK2 (Homo sapiens) (UniProt Q8IWQ3); assay: Selectivity interaction (KinomeScan (DiscoverX)) EUB0000607a BRSK2; conditions: at 10 µM
T2 sequence (whole entry): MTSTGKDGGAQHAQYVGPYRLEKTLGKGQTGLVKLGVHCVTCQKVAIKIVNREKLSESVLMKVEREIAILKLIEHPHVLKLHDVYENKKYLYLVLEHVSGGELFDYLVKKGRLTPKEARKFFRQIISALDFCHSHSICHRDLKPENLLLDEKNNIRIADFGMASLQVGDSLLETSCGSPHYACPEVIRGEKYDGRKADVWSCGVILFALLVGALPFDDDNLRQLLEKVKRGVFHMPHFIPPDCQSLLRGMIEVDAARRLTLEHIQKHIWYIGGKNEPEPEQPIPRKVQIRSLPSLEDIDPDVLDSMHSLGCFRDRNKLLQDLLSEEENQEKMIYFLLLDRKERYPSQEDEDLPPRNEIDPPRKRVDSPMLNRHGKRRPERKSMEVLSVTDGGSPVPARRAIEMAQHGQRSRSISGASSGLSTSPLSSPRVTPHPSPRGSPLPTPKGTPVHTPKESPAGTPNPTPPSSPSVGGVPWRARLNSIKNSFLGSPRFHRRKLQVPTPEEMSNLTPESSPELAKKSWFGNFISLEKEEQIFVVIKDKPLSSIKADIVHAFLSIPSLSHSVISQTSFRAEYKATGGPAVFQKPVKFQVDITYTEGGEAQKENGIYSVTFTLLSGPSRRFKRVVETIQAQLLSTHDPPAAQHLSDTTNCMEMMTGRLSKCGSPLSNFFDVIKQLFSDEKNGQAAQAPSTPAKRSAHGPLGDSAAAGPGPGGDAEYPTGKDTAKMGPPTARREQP

[10] = target: Sodium-dependent serotonin transporter (Homo sapiens, UniProt P31645); assay: Selectivity interaction (Panel of non-epigenetic targets (kinases, GPCRs, ion channels, and transporters, Eurofins) ) EUB0000271b SLC6A4; conditions: at 1 µM
[11] = target: Casein kinase I isoform alpha (Homo sapiens, UniProt P48729); assay: Selectivity interaction (KinomeScan (DiscoverX)) EUB0000618a CSNK1A1; conditions: at 10 µM
Misshapen-like kinase 1 = Misshapen-like kinase 1 (Homo sapiens, UniProt Q8N4C8); assay: Selectivity interaction (KinomeScan (DiscoverX)) EUB0000618a MINK1; conditions: at 10 µM

Cyclin-dependent kinase 18 (Homo sapiens), sequence (Q07002 whole entry): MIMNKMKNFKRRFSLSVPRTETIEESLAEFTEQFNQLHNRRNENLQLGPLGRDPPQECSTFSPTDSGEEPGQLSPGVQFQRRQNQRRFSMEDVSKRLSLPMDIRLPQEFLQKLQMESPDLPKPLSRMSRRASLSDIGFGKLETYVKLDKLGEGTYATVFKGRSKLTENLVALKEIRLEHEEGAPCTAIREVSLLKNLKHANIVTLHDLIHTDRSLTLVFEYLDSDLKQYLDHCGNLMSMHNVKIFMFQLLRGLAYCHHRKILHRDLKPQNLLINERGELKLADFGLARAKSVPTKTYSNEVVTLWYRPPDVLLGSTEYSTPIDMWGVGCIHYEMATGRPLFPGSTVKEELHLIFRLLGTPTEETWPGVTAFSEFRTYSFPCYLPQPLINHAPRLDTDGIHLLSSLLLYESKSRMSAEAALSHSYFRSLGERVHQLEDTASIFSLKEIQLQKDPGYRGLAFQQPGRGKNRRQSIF
Protein-tyrosine kinase 2-beta (Homo sapiens), sequence (Q14289 whole entry, looked up): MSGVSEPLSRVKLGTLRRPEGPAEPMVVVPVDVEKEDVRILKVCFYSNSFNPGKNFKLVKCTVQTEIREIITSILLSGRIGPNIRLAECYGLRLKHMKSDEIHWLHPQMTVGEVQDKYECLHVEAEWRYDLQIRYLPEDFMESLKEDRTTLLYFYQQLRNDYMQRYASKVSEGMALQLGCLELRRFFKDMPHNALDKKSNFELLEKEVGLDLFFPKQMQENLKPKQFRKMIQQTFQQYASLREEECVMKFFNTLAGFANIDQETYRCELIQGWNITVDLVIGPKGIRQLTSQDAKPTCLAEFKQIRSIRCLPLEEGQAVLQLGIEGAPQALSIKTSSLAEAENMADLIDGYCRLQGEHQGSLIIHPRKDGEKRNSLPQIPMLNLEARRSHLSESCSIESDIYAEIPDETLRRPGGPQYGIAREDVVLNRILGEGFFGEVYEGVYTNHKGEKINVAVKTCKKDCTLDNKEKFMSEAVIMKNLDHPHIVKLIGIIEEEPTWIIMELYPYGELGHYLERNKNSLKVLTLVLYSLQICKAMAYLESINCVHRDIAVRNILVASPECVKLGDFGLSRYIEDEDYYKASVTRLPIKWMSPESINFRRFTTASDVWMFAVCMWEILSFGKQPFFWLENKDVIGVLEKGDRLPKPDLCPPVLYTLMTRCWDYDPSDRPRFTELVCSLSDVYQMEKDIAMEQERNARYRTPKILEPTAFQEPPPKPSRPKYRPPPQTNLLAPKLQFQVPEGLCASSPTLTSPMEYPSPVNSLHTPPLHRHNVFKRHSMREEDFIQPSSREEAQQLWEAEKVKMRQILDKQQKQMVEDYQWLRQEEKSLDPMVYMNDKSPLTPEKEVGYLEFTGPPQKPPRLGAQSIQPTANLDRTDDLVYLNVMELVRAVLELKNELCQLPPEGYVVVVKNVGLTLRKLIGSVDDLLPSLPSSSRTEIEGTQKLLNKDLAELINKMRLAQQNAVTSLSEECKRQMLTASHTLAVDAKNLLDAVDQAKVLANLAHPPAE
Ribosomal protein S6 kinase alpha-1, sequence (Q15418 whole entry): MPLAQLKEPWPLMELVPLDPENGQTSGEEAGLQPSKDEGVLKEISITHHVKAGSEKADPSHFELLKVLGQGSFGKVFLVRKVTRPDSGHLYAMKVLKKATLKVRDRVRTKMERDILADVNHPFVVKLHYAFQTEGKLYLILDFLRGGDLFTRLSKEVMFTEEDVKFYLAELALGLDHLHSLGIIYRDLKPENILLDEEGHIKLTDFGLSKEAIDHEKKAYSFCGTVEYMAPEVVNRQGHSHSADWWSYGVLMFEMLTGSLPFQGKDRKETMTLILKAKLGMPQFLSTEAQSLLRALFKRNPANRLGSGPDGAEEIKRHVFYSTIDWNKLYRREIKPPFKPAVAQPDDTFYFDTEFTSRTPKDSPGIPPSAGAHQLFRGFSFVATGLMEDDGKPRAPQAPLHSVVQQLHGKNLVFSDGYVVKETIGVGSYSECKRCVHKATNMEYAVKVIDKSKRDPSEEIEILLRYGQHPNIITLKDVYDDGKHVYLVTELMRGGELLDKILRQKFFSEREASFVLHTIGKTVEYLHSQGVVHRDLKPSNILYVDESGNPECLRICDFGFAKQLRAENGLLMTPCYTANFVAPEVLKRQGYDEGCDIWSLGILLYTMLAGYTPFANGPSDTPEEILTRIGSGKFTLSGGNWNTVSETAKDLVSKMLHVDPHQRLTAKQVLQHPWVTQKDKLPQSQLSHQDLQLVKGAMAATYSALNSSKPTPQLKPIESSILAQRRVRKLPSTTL
Cyclin-dependent kinase 11B (Homo sapiens), sequence (P21127 whole entry): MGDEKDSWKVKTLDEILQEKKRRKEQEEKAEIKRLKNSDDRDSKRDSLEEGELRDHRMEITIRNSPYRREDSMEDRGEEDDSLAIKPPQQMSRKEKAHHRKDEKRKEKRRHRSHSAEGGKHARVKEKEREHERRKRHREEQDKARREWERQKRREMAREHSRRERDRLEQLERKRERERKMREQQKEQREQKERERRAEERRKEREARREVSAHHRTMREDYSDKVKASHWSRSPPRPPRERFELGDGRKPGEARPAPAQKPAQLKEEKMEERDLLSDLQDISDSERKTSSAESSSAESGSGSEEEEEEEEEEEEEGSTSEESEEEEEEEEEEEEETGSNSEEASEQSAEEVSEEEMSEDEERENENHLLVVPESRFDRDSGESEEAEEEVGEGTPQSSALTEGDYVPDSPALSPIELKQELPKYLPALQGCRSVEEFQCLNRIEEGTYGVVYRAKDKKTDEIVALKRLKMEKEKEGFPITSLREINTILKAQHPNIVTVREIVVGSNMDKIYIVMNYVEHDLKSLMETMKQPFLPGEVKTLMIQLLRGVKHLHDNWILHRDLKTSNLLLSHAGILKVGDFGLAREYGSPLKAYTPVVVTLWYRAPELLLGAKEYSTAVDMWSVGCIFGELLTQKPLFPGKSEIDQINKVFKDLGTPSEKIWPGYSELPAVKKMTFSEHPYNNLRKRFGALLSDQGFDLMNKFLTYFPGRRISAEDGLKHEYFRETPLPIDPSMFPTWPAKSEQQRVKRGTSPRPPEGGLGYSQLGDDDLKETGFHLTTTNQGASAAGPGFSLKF
Tyrosine-protein kinase ABL1, sequence (P00519 whole entry): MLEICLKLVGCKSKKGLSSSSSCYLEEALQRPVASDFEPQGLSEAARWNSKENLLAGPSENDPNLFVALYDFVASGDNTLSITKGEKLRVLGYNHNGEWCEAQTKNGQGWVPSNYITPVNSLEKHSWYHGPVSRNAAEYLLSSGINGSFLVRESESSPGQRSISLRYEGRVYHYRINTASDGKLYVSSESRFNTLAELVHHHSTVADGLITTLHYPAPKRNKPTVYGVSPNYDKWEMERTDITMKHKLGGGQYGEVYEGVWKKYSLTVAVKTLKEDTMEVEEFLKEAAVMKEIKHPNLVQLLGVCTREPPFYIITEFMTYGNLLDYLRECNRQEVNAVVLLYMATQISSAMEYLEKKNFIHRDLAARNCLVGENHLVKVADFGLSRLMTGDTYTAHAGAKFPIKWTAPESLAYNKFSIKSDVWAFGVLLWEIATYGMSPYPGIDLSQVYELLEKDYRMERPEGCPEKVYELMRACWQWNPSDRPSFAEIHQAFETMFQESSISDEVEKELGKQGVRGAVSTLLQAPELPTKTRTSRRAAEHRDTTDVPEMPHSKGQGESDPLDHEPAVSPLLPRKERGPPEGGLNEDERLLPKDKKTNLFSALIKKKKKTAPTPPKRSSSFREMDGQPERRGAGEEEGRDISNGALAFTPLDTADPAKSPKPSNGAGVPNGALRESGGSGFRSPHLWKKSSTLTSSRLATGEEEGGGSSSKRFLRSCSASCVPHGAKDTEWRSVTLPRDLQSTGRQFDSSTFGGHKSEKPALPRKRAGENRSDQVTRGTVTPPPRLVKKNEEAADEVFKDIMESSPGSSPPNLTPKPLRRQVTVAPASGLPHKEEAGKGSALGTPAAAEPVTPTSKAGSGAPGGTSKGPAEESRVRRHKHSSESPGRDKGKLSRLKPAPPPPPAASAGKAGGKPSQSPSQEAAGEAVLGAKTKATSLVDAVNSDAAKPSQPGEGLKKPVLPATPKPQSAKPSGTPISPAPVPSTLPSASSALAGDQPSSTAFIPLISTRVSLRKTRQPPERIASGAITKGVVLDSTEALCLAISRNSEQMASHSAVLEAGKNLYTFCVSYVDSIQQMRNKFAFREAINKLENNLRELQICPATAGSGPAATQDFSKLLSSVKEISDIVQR
Eukaryotic translation initiation factor 2-alpha kinase 1 (Homo sapiens), sequence (Q9BQI3 whole entry): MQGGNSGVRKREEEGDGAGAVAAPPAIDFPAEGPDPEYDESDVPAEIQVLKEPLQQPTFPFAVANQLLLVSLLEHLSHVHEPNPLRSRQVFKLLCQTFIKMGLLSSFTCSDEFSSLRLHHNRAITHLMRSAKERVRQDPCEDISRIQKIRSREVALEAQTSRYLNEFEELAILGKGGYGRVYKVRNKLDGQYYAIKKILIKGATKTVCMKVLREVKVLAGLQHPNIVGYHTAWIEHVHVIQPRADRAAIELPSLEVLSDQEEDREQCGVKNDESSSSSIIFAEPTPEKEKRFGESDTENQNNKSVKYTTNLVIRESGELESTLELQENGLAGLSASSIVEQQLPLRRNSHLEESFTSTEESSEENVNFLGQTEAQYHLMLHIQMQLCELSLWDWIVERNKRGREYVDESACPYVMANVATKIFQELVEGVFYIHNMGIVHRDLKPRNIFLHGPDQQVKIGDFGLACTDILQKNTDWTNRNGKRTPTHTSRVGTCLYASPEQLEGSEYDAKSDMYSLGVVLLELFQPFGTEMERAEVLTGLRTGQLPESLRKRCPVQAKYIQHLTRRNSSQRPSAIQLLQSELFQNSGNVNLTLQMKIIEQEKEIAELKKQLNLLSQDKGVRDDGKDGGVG

CCC(=O)N1CCN(c2ccc(-n3c(=O)ccc4cnc5ccc(-c6cnc7ccccc7c6)cc5c43)cc2C(F)(F)F)CC1
% of control [1]: 57%

CN(C)CCOc1ccc(-c2nc(-c3ccncc3)c(-c3ccc4c(c3)CC/C4=N\O)[nH]2)cc1
% of control [2]: 100%

C=CC(=O)Nc1ccc(C(=O)Nc2[nH]nc3c2CN(C(=O)N[C@H](CN(C)C)c2ccccc2)C3(C)C)cc1
% of engagement [3]: -19.4%

O=C(NOC[C@H](O)CO)c1ccc(F)c(F)c1Nc1ccc(I)cc1F
% of control [4]: 95% | % of control [5]: 98%

Cn1cc(-n2cnc3c(NCc4nc5cc(Cl)c(Cl)cc5[nH]4)nc(N4CCOCC4)nc32)cn1
% of inhibition [6]: -16.5%

CC[C@@H]1[C@H](F)C(=O)N[C@@H]1COc1nccc2cc(C(N)=O)c(OC)cc12 [ZIMLOVISERTIB]
% of inhibition ([7]; at 0.01 µM): -0.6% | % of inhibition ([7]; at 0.04 µM): 0.5% | % of inhibition ([7]; at 0.2 µM): -0.8% | % of inhibition ([7]; at 1 µM): 7.7% | % of inhibition ([7]; at 5 µM): 41.7% | % of inhibition [8]: 3.6%

CNC(=O)Nc1ccc(-c2nc(N3CC4CCC(C3)O4)c3cnn(C4CCC5(CC4)OCCO5)c3n2)cc1
% of control [9]: 100%

Cc1cc(C)cc([C@@H]2c3cc(C)ccc3NC(=O)CN2C(=O)c2ccc(Br)s2)c1
% of inhibition [10]: -17%

O[C@H]1CC[C@H](Nc2ncc3nc(Nc4c(F)cc(F)cc4F)n([C@H]4CCOC4)c3n2)CC1
% of control [11]: 100% | % of control (Misshapen-like kinase 1): 71%
